Consider four molecules from patent US7629366B2, “Aminoalcohol derivatives” (Fujisawa Pharmaceutical Co., Ltd., priority 2002, dated 2009).

Structures are written as SMILES.

This experiment deals with increase in intravesical pressure induced by carbachol in anesthetized dog. The experiment is described as follows: Effect on the increase in intravesical pressure induced by carbachol in anesthetized dog. The class given is in vivo. Particulars: 0.032 mg/kg intravenously, 30 minutes before carbachol (1.8 μg/kg); female Beagle dogs under halothane anesthesia. The procedure: Effect on the increase in intravesical pressure induced by carbachol in anesthetized dog
Female Beagle dogs weighing 8.0-15.0 kg were fasted for 24 hours and maintained under halothane anesthesia. A 12F Foley catheter was lubricated with water soluble jelly, inserted into the urethral orifice and advanced approximately 10 cm until the balloon tip was placed well inside the bladder. The balloon was then inflated with 5 ml of room air and catheter slowly withdrawn just part the first resistance that is felt at the bladder neck. Urine was completely drained out through the catheter, and 30 ml of biological saline was infused. The catheter was connected to pressure transducer, and intravesical pressure (IVP) was continuously recorded. The test compound was administered intravenously at 30 minutes before the administration of carbachol (1.8 μg/kg). Percent inhibition of IVP increase by test compound was calculated by dividing IVPa (IVP increase induced by carbachol after test compound administration) by IVPb (IVP increase induced by carbachol just before test compound administration).
Take `COc1cc(-c2ccc(C[C@@H](C)NC[C@H](O)c3ccccc3)cc2)ccc1C(=O)O.Cl` [Test Compound (1), 4′-[(2R)-2-[[(2R)-2-Phenyl-2-hydroxyethyl]amino]-propyl]-3-methoxy-1,1′-biphenyl-4-carboxylic acid hydrochloride]: the “Percent inhibition of IVP increase” value amounted to 93%.
On to `Cc1c(C(=O)O)ccc(-c2ccc(CCNC[C@H](O)c3cccc(Cl)c3)cc2)c1C.Cl` [Test Compound (2), 4′-[2-[[(2R)-2-(3-Chlorophenyl)-2-hydroxyethyl]amino]-ethyl]-2,3-dimethyl-1,1′-biphenyl-4-carboxylic acid hydrochloride], for which the “Percent inhibition of IVP increase” value stood at 91%.
In the case of `Cc1cc(C(=O)O)ccc1-c1ccc(CCNC[C@H](O)c2cccnc2)cc1.Cl.Cl` [Test Compound (3), 4′-[2-[[(2R)-2-Hydroxy-2-(3-pyridyl)ethyl]amino]ethyl]-2-methyl-1,1′-biphenyl-4-carboxylic acid dihydrochloride], the “Percent inhibition of IVP increase” value came to 86%.
In the case of `COc1cc(-c2ccc(C[C@@H](C)NC[C@H](O)c3cccnc3)cc2)ccc1C(=O)O.Cl.Cl` [Test Compound (4), 4′-[(2R)-2-[[(2R)-2-Hydroxy-2-(3-pyridyl)ethyl]amino]-propyl]-3-methoxy-1,1′-biphenyl-4-carboxylic acid dihydrochloride] it was 96%.
